Laboratory results taken from US8833457B2, “Sulfates and phosphates as allosteric effectors in mannanohydrolase enzyme breakers” (Baker Hughes Incorporated, priority 2011, dated 2014).

Test system: mannanohydrolase, GBW-22C
Assay: Viscosity reduction of borate-crosslinked guar gel by mannanohydrolase enzyme breaker with allosteric effector (Chandler HTHP 5500 Viscometer)
Assay type: biochemical
Conditions: 150° F., 500 psi
Method: A solution was made comprising: 17 ppt of guar polymer, GW-3LDF; 1 gpt of clay stabilizer, Claytreat-3C; 1.5 gpt of buffer, BF-7L; 1 gpt of crosslinking agent, XLW-32; 1 gpt mannanohydrolase, GBW-22C, diluted 1/100 with distilled water; and 1 gpt of a 1% wt. solution of Na2SO4 (all components available from Baker Hughes Inc.). The solution was mixed with an overhead stirrer. 52 mL of crosslinked fluid was loaded on to a Chandler HTHP 5500 Viscometer and run at 500 psi, 150° F., and 100 s^−1 for an hour.
To compare the effects of phosphate and sulfate a solution was made comprising: 17 ppt of guar polymer, GW-3LDF; 1 gpt of clay stabilizer, Claytreat-3C; 1.5 gpt of buffer, BF-7L; 1 gpt of crosslinking agent, XLW-32; 1 gpt mannanohydrolase, GBW-22C, diluted 1/100 with distilled water; and 1 gpt of a 1% wt. solution of K2HPO4 (all components available from Baker Hughes Inc.).

- difference in enzyme activity between high and smaller concentrations of the effector (FIG. 3) (3 g/L versus 1 gpt 20% wt. Na2SO4 or 2 mg/L, 100 s^−1): does not appear to be a difference
SMILES: O=S(=O)([O-])[O-].[Na+].[Na+] [Na2SO4]
- effect of the effector on activity of the mannanohydrolase enzyme against the guar polymer (FIG. 3) (17 ppt GW-3LDF guar, XLW-32 crosslinker, 1 gpt GBW-22C diluted 1/100, 1 gpt of 1% wt. Na2SO4, 100 s^−1, one hour): drastically improves the activity of the mannanohydrolase enzyme
